Measured values taken from ChEMBL document CHEMBL4680210, “Discovery of 1,6-naphthyridinone-based MET kinase inhibitor bearing quinoline moiety as promising antitumor drug candidate” (Eur J Med Chem, 2020).

Tests used:
[1] = target: Hepatocyte growth factor receptor (Homo sapiens, UniProt P08581)
NCI-H460 = assay: cells; conditions: Homo sapiens, NCI-H460, 72 h
MKN-45 = assay: cells; conditions: Homo sapiens, MKN-45, 72 h
cells = conditions: Homo sapiens, U-87 MG, 72 h
[2] = Half life in rat liver microsomes; type: ADME, Microsome
HT-29 = assay: cells; conditions: Homo sapiens, HT-29, 72 h
[3] = Oral bioavailability in Sprague-Dawley rat at 5 mg/kg up to 24 hrs by LC-MS/MS analysis; type: ADME, organism-based; conditions: in vivo
[4] = Antitumour activity against human U87MG cells xenografted in athymic nude mouse assessed as tumour growth inhibition at 3 mg/kg, po for 21 days relative to control; type: functional, U87; conditions: U-87 MG, 504 h, time 21 day, read-out: TGI
[5] = Tmax in Sprague-Dawley rat at 5 mg/kg, po up to 24 hrs by LC-MS/MS analysis; type: ADME, organism-based; conditions: in vivo
[6] = Antitumour activity against human U87MG cells xenografted in athymic nude mouse assessed as tumour growth inhibition at 37.5 mg/kg, po for 21 days relative to control; type: functional, U87; conditions: U-87 MG, 504 h, time 21 day, read-out: TGI
[7] = Clearance in Sprague-Dawley rat at 1 mg/kg, iv up to 24 hrs by LC-MS/MS analysis; type: ADME, organism-based; conditions: in vivo
Angiopoietin-1 receptor = Angiopoietin-1 receptor (Homo sapiens, UniProt Q02763); assay: Inhibition of TEK (unknown origin) using biotin as substrate preincubated for 5 mins followed by substrate addition and measured after 30 to 60 mins by HTRF assay
Sequence of Angiopoietin-1 receptor (Q02763 whole entry): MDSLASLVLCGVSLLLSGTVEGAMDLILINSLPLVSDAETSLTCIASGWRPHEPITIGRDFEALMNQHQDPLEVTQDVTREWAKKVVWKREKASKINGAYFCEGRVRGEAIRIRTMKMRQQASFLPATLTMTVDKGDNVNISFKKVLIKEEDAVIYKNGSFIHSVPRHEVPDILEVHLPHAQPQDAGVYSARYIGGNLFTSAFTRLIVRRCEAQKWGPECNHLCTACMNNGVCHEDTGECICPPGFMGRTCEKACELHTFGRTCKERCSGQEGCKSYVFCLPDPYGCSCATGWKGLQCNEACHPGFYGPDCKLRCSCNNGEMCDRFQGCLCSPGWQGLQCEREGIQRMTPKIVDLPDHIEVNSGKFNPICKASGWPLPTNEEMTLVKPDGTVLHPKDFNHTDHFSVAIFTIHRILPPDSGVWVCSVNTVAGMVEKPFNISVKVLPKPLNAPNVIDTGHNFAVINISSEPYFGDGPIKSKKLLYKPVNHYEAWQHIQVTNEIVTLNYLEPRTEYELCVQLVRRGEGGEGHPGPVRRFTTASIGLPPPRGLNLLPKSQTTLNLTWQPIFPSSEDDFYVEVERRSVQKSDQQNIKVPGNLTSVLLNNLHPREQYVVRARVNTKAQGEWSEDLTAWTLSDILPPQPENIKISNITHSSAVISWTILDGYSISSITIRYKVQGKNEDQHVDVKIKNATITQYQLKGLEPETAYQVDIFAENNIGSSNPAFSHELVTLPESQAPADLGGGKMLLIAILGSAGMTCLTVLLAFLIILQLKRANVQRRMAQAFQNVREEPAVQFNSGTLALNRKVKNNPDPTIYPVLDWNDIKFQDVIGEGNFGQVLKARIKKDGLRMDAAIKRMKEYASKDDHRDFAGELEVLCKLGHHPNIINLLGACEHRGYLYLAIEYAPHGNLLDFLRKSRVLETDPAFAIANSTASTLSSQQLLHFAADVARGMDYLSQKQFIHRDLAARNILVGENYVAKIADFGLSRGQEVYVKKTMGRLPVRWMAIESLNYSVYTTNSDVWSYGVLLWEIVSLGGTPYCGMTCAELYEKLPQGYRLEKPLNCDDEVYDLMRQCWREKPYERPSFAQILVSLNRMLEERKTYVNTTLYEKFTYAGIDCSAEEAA

[8] = Cmax in Sprague-Dawley rat at 5 mg/kg, po up to 24 hrs by LC-MS/MS analysis; type: ADME, organism-based; design: route oral, dose 5 mg/kg, time <=24; conditions: in vivo
[9] = AUC (0 to infinity) in Sprague-Dawley rat at 1 mg/kg, iv up to 24 hrs by LC-MS/MS analysis; type: ADME, organism-based; design: route intravenous, dose 1 mg/kg, time <=24; conditions: in vivo
[10] = Half life in Sprague-Dawley rat at 5 mg/kg, po up to 24 hrs by LC-MS/MS analysis; type: ADME, organism-based; conditions: in vivo
[11] = Cmax in Sprague-Dawley rat at 1 mg/kg, iv up to 24 hrs by LC-MS/MS analysis; type: ADME, organism-based; design: route intravenous, dose 1 mg/kg, time <=24; conditions: in vivo
[12] = Clearance in Sprague-Dawley rat at 5 mg/kg, po up to 24 hrs by LC-MS/MS analysis; type: ADME, organism-based; conditions: in vivo
[13] = Apparent volume of distribution in Sprague-Dawley rat at 1 mg/kg, iv up to 24 hrs by LC-MS/MS analysis; type: ADME, organism-based; conditions: in vivo, read-out: Vz
animal or person = conditions: Homo sapiens, U-87 MG, po, 504 h, read-out: TGI
[14] = Apparent volume of distribution in Sprague-Dawley rat at 5 mg/kg, po up to 24 hrs by LC-MS/MS analysis; type: ADME, organism-based; conditions: in vivo
U87 = assay: Antitumour activity against human U87MG cells xenografted in po dosed athymic nude mouse assessed as tumour growth inhibition for 21 days; type: functional, organism-based; conditions: dose 3-37.5 mg/kg, time 21.0 day
[15] = Half life in Sprague-Dawley rat at 1 mg/kg, iv up to 24 hrs by LC-MS/MS analysis; type: ADME, organism-based; conditions: in vivo
[16] = target: T1, Tyrosine-protein kinase receptor UFO (Homo sapiens, UniProt P30530); assay: Inhibition of AXL (unknown origin) using biotin as substrate preincubated for 5 mins followed by substrate addition and measured after 30 to 60 mins by HTRF assay
T1 sequence (P30530 whole entry): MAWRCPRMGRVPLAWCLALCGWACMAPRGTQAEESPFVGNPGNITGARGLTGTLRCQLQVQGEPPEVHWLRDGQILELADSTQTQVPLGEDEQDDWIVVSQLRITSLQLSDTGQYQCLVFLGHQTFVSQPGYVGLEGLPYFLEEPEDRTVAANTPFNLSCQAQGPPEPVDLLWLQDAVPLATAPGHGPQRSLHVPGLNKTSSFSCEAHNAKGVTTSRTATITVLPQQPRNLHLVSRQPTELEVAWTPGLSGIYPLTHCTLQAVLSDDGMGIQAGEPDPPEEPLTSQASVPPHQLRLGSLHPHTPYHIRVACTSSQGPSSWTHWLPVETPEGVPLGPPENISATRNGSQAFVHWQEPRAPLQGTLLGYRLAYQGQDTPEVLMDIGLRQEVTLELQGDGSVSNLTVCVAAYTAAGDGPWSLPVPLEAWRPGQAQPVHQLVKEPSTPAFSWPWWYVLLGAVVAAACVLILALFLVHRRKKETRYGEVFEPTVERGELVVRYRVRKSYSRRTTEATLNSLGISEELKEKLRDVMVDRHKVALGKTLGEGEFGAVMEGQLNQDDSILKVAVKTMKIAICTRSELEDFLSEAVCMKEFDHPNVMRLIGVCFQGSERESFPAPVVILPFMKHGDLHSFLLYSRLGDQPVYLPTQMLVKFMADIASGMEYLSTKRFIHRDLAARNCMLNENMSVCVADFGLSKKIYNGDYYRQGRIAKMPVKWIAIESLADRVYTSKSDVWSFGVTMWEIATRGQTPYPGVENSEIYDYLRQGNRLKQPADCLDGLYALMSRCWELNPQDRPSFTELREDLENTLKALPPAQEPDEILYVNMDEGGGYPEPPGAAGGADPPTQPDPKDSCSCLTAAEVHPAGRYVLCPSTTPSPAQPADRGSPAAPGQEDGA

[17] = AUC (0 to infinity) in Sprague-Dawley rat at 5 mg/kg, po up to 24 hrs by LC-MS/MS analysis; type: ADME, organism-based; design: route oral, dose 5 mg/kg, time <=24; conditions: in vivo
[18] = Antitumour activity against human U87MG cells xenografted in athymic nude mouse assessed as tumour growth inhibition at 6 mg/kg, po for 21 days relative to control; type: functional, U87; conditions: U-87 MG, 504 h, time 21 day, read-out: TGI
[19] = target: Vascular endothelial growth factor receptor 3 (Homo sapiens, UniProt P35916); assay: Inhibition of FLT4 (unknown origin) using biotin as substrate preincubated for 5 mins followed by substrate addition and measured after 30 to 60 mins by HTRF assay
Sequence of Vascular endothelial growth factor receptor 3 (P35916 whole entry): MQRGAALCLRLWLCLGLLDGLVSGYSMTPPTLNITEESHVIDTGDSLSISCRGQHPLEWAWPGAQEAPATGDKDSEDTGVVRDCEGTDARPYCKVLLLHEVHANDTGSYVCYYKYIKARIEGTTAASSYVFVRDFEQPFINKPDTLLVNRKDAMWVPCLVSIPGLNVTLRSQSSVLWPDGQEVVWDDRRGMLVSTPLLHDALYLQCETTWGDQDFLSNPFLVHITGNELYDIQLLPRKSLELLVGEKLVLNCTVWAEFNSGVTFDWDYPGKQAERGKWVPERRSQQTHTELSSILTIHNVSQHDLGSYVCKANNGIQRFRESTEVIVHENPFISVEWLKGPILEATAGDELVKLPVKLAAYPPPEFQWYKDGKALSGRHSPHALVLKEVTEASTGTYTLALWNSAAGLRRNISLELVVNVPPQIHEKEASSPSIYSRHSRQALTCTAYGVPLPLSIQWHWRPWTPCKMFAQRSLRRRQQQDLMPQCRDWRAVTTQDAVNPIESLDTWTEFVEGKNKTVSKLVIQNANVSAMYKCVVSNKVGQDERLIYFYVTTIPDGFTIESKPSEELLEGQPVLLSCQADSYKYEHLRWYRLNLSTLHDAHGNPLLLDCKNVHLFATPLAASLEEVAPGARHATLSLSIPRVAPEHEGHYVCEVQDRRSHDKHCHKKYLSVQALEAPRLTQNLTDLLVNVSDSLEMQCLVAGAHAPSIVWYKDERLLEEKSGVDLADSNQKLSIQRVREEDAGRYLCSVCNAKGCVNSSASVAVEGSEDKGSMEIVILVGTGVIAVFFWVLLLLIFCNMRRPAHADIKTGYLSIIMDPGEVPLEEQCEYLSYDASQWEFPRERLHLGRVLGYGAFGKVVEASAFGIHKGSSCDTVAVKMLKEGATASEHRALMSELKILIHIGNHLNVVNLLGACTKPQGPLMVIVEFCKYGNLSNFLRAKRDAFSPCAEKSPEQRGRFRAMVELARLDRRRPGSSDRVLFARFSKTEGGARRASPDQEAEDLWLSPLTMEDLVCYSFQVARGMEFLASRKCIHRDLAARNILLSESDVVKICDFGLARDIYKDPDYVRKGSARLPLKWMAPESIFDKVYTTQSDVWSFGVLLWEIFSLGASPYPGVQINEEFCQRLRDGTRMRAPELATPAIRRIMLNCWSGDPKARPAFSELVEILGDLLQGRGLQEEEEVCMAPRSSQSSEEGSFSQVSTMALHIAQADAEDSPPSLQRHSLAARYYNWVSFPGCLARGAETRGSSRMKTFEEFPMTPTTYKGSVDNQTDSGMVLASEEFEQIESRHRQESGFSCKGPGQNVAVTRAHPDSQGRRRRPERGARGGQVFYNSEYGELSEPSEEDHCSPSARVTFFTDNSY

Sequence of Hepatocyte growth factor receptor (P08581 whole entry): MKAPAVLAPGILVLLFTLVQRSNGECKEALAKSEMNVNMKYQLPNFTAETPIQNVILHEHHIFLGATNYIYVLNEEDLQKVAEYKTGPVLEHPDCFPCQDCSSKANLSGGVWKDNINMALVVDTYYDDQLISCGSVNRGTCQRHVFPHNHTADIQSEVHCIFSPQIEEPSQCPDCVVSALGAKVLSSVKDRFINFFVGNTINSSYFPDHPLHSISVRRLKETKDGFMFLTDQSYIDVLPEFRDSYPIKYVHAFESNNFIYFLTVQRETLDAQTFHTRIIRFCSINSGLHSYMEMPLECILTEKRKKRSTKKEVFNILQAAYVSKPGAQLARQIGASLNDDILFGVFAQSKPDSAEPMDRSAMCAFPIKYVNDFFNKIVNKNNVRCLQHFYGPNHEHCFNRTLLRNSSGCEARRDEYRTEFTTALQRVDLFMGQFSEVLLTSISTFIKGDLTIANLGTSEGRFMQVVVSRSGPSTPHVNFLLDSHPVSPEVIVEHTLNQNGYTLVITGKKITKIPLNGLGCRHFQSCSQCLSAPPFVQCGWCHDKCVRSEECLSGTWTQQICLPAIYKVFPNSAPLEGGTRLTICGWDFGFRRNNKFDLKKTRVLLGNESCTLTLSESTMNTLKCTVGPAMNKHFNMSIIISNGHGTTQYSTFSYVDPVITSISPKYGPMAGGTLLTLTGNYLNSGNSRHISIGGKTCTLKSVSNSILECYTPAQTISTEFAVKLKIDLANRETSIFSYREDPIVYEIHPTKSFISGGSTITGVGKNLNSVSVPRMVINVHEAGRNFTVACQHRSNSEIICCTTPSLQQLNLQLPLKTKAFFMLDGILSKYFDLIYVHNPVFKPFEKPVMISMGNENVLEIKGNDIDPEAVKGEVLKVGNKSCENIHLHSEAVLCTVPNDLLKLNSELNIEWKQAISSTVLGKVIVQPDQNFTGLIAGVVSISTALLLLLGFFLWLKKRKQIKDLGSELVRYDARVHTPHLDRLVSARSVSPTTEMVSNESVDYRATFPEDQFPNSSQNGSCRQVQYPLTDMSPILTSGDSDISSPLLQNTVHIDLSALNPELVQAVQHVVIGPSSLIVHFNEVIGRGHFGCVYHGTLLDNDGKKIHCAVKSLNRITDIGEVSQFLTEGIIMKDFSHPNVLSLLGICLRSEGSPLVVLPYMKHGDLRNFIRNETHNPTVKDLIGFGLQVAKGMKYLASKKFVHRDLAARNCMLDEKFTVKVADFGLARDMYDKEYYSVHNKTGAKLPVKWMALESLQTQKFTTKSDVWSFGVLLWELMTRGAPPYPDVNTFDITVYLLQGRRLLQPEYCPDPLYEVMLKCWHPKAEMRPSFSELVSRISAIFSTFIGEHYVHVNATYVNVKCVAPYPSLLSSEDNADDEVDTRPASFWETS

## COc1cc2c(Oc3ccc(Nc4nccc5[nH]cc(-c6ccc(F)cc6)c(=O)c45)cc3F)ccnc2cc1OCC(C)(C)OC
[1]
  IC50: 0.0121 µM

## COCCOc1cc2nccc(Oc3ccc(Nc4nccc5[nH]cc(-c6ccccc6)c(=O)c45)cc3F)c2cc1OC
[1]
  IC50: 0.0077 µM

## COC(C)(C)COc1ccc2c(Oc3ccc(Nc4nccc5[nH]cc(-c6ccc(F)cc6)c(=O)c45)cc3F)ccnc2c1
NCI-H460
  IC50: 4.4 µM
MKN-45
  IC50: 5.5 µM
cells
  IC50: 16.4 µM
[1]
  IC50: 0.0131 µM
[2]
  half-life: 1.45 h
HT-29
  IC50: 4.8 µM

## CC(C)(O)COc1ccc2c(Oc3ccc(Nc4nccc5[nH]cc(-c6ccccc6)c(=O)c45)cc3F)ccnc2c1
[3]
  bioavailability: 32%
[4]
  inhibition in vivo at 3 mg/kg: 47%
[5]
  Tmax: 4 h
[6]
  inhibition in vivo at 37.5 mg/kg: 172%
[7]
  clearance: 3.33 mL/min/kg
Angiopoietin-1 receptor
  IC50: 0.019 µM
[8]
  Cmax: 1500 ng/mL
NCI-H460
  IC50: 3.6 µM
[9]
  AUC(0-inf): 6600 ng·h/mL
[10]
  half-life: 4.9 h
MKN-45
  IC50: 2.9 µM
cells
  IC50: 4.5 µM
[11]
  Cmax: 500 ng/mL
[12]
  CL/F: 8.33 mL/min/kg
[2]
  half-life: 5.37 h
[13]
  Vd: 0.9 L/kg
Animal or person
  inhibition in vivo at 12.5 mg/kg: 131%
[14]
  Vz: 3.3 L/kg
U87
  TGI: Dose-dependent effect
[15]
  half-life: 4 h
[16]
  IC50: 0.0323 µM
[17]
  AUC(0-inf): 10700 ng·h/mL
[18]
  inhibition in vivo at 6 mg/kg: 57%
[19]
  IC50: 0.116 µM
HT-29
  IC50: 4.2 µM

## COCCOc1ccc2c(Oc3ccc(Nc4nccc5[nH]cc(-c6ccc(F)cc6)c(=O)c45)cc3F)ccnc2c1
NCI-H460
  IC50: 4.3 µM
MKN-45
  IC50: 5.6 µM
cells
  IC50: 5.1 µM
[1]
  IC50: 0.0084 µM
[2]
  half-life: 1.73 h
HT-29
  IC50: 6.5 µM

## Cc1[nH]c2ccnc(Nc3ccc(Oc4ccnc5cc(OCC(C)(C)O)ccc45)c(F)c3)c2c(=O)c1-c1ccccc1
[1]
  IC50: 0.0403 µM

## COc1cc2nccc(Oc3ccc(Nc4nccc5[nH]cc(-c6ccc(F)cc6)c(=O)c45)cc3F)c2cc1OC
[1]
  IC50: 0.0766 µM

## CC(O)COc1ccc2c(Oc3ccc(Nc4nccc5[nH]cc(-c6ccc(F)cc6)c(=O)c45)cc3F)ccnc2c1 (stereo not given)
NCI-H460
  IC50: 3.4 µM
MKN-45
  IC50: 3.1 µM
cells
  IC50: 8.5 µM
[1]
  IC50: 0.133 µM
[2]
  half-life: 1.42 h
HT-29
  IC50: 3.9 µM

## O=c1c(-c2ccc(F)cc2)c[nH]c2ccnc(Nc3ccc(Oc4ccnc5cc(OCCN6CCOCC6)ccc45)c(F)c3)c12
[2]
  half-life: 0.11 h

## CC(C)(O)COc1ccc2c(Oc3ccc(Nc4nccc5[nH]cc(-c6ccc(F)cc6)c(=O)c45)cc3F)ccnc2c1
NCI-H460
  IC50: 3.2 µM
MKN-45
  IC50: 2.7 µM
cells
  IC50: 4.7 µM
[2]
  half-life: 4.14 h
HT-29
  IC50: 3.4 µM

## COc1cc2c(Oc3ccc(Nc4nccc5[nH]cc(-c6ccc(F)cc6)c(=O)c45)cc3F)ccnc2cc1OCC(C)(C)O
NCI-H460
  IC50: 1.7 µM
MKN-45
  IC50: 1.4 µM
cells
  IC50: 2.6 µM
[2]
  half-life: 5.17 h
HT-29
  IC50: 2.1 µM

## O=c1c(-c2ccc(F)cc2)c[nH]c2ccnc(Nc3ccc(Oc4ccnc5cc(OCCO)ccc45)c(F)c3)c12
NCI-H460
  IC50: 3.5 µM
MKN-45
  IC50: 4.7 µM
cells
  IC50: 4.9 µM
[2]
  half-life: 1.51 h
HT-29
  IC50: 5.5 µM

## COc1cc2c(Oc3ccc(Nc4nccc5[nH]cc(-c6ccc(F)cc6)c(=O)c45)cc3F)ccnc2cc1OCCO
NCI-H460
  IC50: 2 µM
MKN-45
  IC50: 1.6 µM
cells
  IC50: 4.1 µM
[1]
  IC50: 0.0057 µM
[2]
  half-life: 1.48 h
HT-29
  IC50: 2.9 µM

## CC(C)COc1ccc2c(Oc3ccc(Nc4nccc5[nH]cc(-c6ccc(F)cc6)c(=O)c45)cc3F)ccnc2c1
[1]
  IC50: 0.0278 µM
[2]
  half-life: 1.5 h

## COc1cc2c(Oc3ccc(Nc4nccc5[nH]cc(-c6ccc(F)cc6)c(=O)c45)cc3F)ccnc2cc1OCC(C)C
[1]
  IC50: 0.0197 µM

## O=c1c(-c2ccc(F)cc2)c[nH]c2ccnc(Nc3ccc(Oc4ccnc5cc(O)ccc45)c(F)c3)c12
NCI-H460
  IC50: 43 µM
MKN-45
  IC50: 5 µM
cells
  IC50: 7.2 µM
[1]
  IC50: 0.005 µM
[2]
  half-life: 0.893 h
HT-29
  IC50: 5.9 µM

## COCCOc1cc2nccc(Oc3ccc(Nc4nccc5[nH]cc(-c6ccc(F)cc6)c(=O)c45)cc3F)c2cc1OC
NCI-H460
  IC50: 3 µM
MKN-45
  IC50: 3.1 µM
cells
  IC50: 5.2 µM
[1]
  IC50: 0.083 µM
[2]
  half-life: 1.06 h
HT-29
  IC50: 4.6 µM

## O=c1c(-c2ccccc2)c[nH]c2ccnc(Nc3ccc(Oc4ccnc5cc(OCCCN6CCOCC6)ccc45)c(F)c3)c12
[2]
  half-life: 0.297 h
